Experimental data: US7585885B2, “Pyrrolidine derivatives useful as BACE inhibitors” (Eli Lilly and Company, priority 2004, dated 2009)
Where a name gives a salt, the structure may show the parent alone.

Key:
beta-secretase activity = biological target: T1, beta-secretase activity (Homo sapiens, UniProt P56817); assay: Whole cell assay for measuring the inhibition of beta-secretase activity; assay type: cell-based; conditions: HEK293/APP751sw or HEK293/APP751wt cells, 37 C for 4 to 6 hours, sandwich ELISA of conditioned media; read-out: IC50 (Abeta, sAPPbeta-lowering effect)
T1 construct: endogenous in cells; host or cells: HEK293p (ATCC CRL-1573) stably expressing human APP751sw or APP751wt
T1 sequence (P56817 46-501): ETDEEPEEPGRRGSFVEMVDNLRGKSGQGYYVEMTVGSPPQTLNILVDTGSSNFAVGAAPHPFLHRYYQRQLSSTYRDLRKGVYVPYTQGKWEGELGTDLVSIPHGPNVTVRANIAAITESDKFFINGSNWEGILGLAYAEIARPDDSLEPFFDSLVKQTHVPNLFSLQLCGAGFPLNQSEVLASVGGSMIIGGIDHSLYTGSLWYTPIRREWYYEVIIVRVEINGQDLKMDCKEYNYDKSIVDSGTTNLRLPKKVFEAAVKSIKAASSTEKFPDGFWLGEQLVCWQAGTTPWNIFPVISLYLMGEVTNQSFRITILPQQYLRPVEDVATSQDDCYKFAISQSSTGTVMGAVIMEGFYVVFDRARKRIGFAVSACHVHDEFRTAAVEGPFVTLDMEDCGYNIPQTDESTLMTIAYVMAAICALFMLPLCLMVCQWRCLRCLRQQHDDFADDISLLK
Method: (§1) For in vitro enzymatic and cellular assays, test compounds are prepared in DMSO to make up a 10 millimolar stock solution. The stock solution is serially diluted (in a 1:3, 1:2.5, 1:2, or 1:1 dilution series) in DMSO to obtain a final compound concentration of 10 millimolar to 1 micromolar at the first highest concentration of a ten-point dilution curve in a 96-well round-bottom plate right before conducting the in vitro enzymatic and whole assays.
The routine whole cell assay for the measurement of inhibition of beta-secretase activity utilizes the human embryonic kidney cell line HEK293p (ATCC Accession No. CRL-1573) stably expressing a human APP751 cDNA containing the naturally occurring double mutation […] to Asn651Leu652, commonly called the Swedish mutation (noted HEK293/APP751sw) and shown to overproduce Abeta (Citron et al., 1992, Nature 360:672-674). Human embryonic kidney HEK293p cells stably expressing wild-type human APP751 cDNA (noted HEK293/APP751 wt) are also used to assess the inhibition of beta-secretase activity. In vitro Aβ reduction assays have been described in the literature (See: Dovey, et al., Journal of Neurochemistry, 76, 173-181 (2001); Seubert, et al., Nature, 361, 260 (1993); and Johnson-Wood, et al., Proc. Natl. Acad. Sci. USA, 94, 1550-1555 (1997))
Cells (HEK293/APP751sw or HEK293/APP751wt, at 3×10^4 cells/well, containing 200 microliters culture media, DMEM containing 10% FBS) are incubated at 37 C for 4 to 6 hours in the presence/absence of inhibitors (diluted in DMSO) at the desired concentration. At the end of the incubation, conditioned media are analyzed for beta-secretase activity, for example, by analysis of cleavage fragments, Abeta peptide and sAPPbeta. Abeta peptides are measured by a sandwich ELISA, using monoclonal 266 as a capture antibody and biotinylated 3D6 as reporting antibody. The sAPPbeta fragments are analyzed by a sandwich ELISA, using monoclonal 8E5 antibody as a capture antibody and rabbit polyclonal 192sw or 192wt as a reporting antibody. Note that sAPPbeta is the cleavage product of full length APP by BACE1. The concentration of sAPPbeta released in the conditioned media following the compound treatment corresponds to the activity of BACE1 under such conditions. The 10-point inhibition curve was plotted and fitted with the four-parameter logistic equation to obtain the EC50 and IC50 values for the Abeta, sAPPbeta-lowering effect. Data for selected compounds of the invention tested in this assay are contained in the following table.

human BACE1 (1-460):Fc = biological target: T2, human BACE1 (1-460):Fc (Homo sapiens, UniProt P56817); assay: BACE1 mcaFRET Assay; assay type: biochemical; conditions: FRET substrate 15 micromolar, pH 4.6, room temperature 16 to 24 hours
T2 construct: made in house; host or cells: HEK293 (transient transfection, purified from conditioned media on Protein A-agarose)
T2 sequence (P56817 22-460): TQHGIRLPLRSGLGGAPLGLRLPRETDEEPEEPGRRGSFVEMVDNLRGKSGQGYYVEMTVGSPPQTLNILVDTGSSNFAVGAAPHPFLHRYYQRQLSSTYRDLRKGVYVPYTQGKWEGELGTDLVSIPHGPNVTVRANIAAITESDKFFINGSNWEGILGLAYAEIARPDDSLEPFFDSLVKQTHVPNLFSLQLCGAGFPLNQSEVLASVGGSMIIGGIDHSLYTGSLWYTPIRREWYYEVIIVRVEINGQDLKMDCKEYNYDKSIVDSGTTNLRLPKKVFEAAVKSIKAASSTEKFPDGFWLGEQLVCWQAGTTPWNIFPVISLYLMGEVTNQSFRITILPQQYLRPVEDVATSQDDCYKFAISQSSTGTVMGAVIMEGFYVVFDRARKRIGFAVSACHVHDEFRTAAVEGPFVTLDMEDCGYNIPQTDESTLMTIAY
Method: as §1
Serial dilutions of test compounds are prepared as described above. Two microliter of each dilution is added to each well on row A to H of a corresponding low protein binding black plate to which 50 microliter of 50 millimolar ammonium acetate, pH 4.6, 1 mM Triton X-100, 1 mg/ml Bovine Serum Albumin, and 15 micromolar of FRET substrate (sequence: (MCA)-S-E-V-N-L-D-A-E-F-R-K(Dnp)-R-R-R-R-NH2) for BACE1 activity are pre-added. The content is mixed well on a plate shaker for 10 min. Fifty microliter of two hundred picomolar human BACE1 (1-460):Fc (See: Vasser, et al., Science, 286, 735-741 (1999)) in the same reaction buffer described above is added to the plate containing substrate and test compounds to initiate the reaction. The relative fluorescence unit (RFU) of the mixture at time 0 is recorded at excitation wavelength 330 nm and emission wavelength 400 nm, after brief mixing on a plate shaker. The reaction plate is covered with aluminum foil and kept in a dark humidified oven at room temperature for 16 to 24 hours. The RFU at the end of incubation is recorded with the same excitation and emission setting. The difference of the RFU at time 0 and the end of incubation represents the activity of BACE1 under the compound treatment. The 10-point inhibition curve was plotted and fitted with the four-parameter logistic equation to obtain the EC50 and IC50 values. (See: Sinha, et al., Nature, 402, 537-540 (2000)). […] Data for selected compounds of the invention tested in this assay are contained in the following table.
Both human (accession number: AF190725) and murine (accession number: NM_011792) BACE1 were cloned from total brain cDNA by […]. The nucleotide sequences corresponding to amino acid sequences #1 to 460 were inserted into the cDNA encoding human IgG1 (Fc) polypeptide (Vassar et al. 1999). This fusion protein of BACE1 (1-460) and human Fc, named huBACE1:Fc, was constructed into the pJB02 vector. Human BACE1(1-460):Fc (huBACE1:Fc) and murine BACE1(1-460):Fc (muBACE1:Fc) were transiently expressed in HEK293 cells. 250 μg cDNA of each construct was mixed with Fugene 6 and added to 1 liter HEK293 cells. Four days after the transfection, conditioned media were harvested for purification.
Conditioned media of HEK293 cell transiently transfected with huBACE1:Fc or muBACE1:Fc cDNA were collected. Cell debris was removed by filtering the conditioned media through 0.22 μm sterile filter. 5 ml Protein A-agarose (bed volume) was added to 4 liter conditioned media. This mixture was gently stirred overnight at 4° C. The Protein A-agarose resin was collected and packed into a low-pressure chromatography column. The column washed with 20× bed volumes of PBS at flow rate 20 ml per hour. Bound huBACE1:Fc or muBACE1:Fc protein was eluted with 50 mM acetic acid, pH 3.6, at flow rate 20 ml per hour. 1 ml fractions of eluate were neutralized immediately with 0.5 ml 200 mM ammonium acetate, pH 6.5. The purity of final product was assessed by electrophoresis in 4-20% Tris-Glycine SDS-PAGE. The enzyme was stored at −80 C in small aliquots.

SMILES	IC50 (beta-secretase activity)	IC50 (human BACE1 (1-460):Fc)
CC(=O)N[C@@H](Cc1cc(F)cc(F)c1)[C@H](O)[C@H]1C[C@@H](CC(=O)N2CCCCC2)CN1 [Example 33, N-{(1S,2R)-1-(3,5-Difluoro-benzyl)-2-hydroxy-2-[(2R,4S)-4-(2-oxo-2-piperidin-1-yl-ethyl)-pyrrolidin-2-yl]-ethyl}-acetamide hydrochloride]	14300 nM	820 nM
CCC(C)Nc1cc(C(=O)NC(Cc2ccccc2)C(O)C2CC(F)CN2)cc(N(C)S(C)(=O)=O)n1 [Example 7, N-[1-(S)-Benzyl-2-(R)-(4-(S)-fluoropyrrolidin-2-yl)-2-(R)-hydroxyethyl]-2-(S)-sec-butylamino-6-(methanesulfonyl-methylamino)-isonicotinamide bishydrochloride]	13 nM	3.9 nM
CC(=O)N[C@@H](Cc1cc(F)cc(F)c1)[C@H](O)[C@H]1C[C@@H](CC(=O)N2CCOCC2)CN1 [Example 35, N-{(1S,2R)-1-(3,5-Difluoro-benzyl)-2-hydroxy-2-[(2R,4S)-4-(2-morpholin-4-yl-2-oxo-ethyl)-pyrrolidin-2-yl]-ethyl}-acetamide hydrochloride]	–	1400 nM
CC(=O)N[C@@H](Cc1cc(F)cc(F)c1)[C@H](O)[C@H]1C[C@@H](CC(=O)N(C)C)CN1 [Example 37, 2-{(3S,5R)-5-[(1R,2S)-2-Acetylamino-3-(3,5-difluoro-phenyl)-1-hydroxy-propyl]-pyrrolidin-3-yl}-N,N-dimethyl-acetamide hydrochloride]	–	5200 nM
CC(=O)N[C@@H](Cc1cc(F)cc(F)c1)[C@H](O)[C@H]1C[C@@H](OCCC2CCCCC2)CN1 [Example 60, N-[(1S,2R)-2-[(2R,4R)-4-(2-Cyclohexyl-ethoxy)-pyrrolidin-2-yl]-1-(3,5-difluoro-benzyl)-2-hydroxy-ethyl]-acetamide hydrochloride]	–	2300 nM
CC(=O)N[C@@H](Cc1cc(F)cc(F)c1)[C@H](O)[C@H]1C[C@@H](CC(=O)N2CCCCCC2)CN1 [Example 41, N-[(1S,2R)-2-[(2R,4S)-4-(2-Azepan-1-yl-2-oxo-ethyl)-pyrrolidin-2-yl]-1-(3,5-difluoro-benzyl)-2-hydroxy-ethyl]-acetamide hydrochloride]	6070 nM	380 nM
CCC(C)Nc1cc(C(=O)NC(Cc2ccccc2)C(O)C2CCCN2)cc(N(C)S(C)(=O)=O)n1 [Example 12, N-((1S,2R)-1-Benzyl-2-hydroxy-2-(R)-pyrrolidin-2-ylethyl)-2-(S)-sec-butylamino-6-(methanesulfonyl-methylamino)-isonicotinamide hydrochloride]	15 nM	1.8 nM
